Laboratory results from patent US20060258571A1, “Antibacterial ester macrocycles” (priority 2002, published 2006).
pIC50: −log10 of the molar value. Where a name gives a salt, the structure may show the parent alone.

Key:
[1] = tested on: E. coli MRE600 Translation; experiment: In vitro transcription-translation with E. coli extracts; format: biochemical, Escherichia coli; details: S30 extract, pBESTLuc template, firefly luciferase, 30° C. 60 min
Procedure: In Vitro Transcription-Translation with E. coli Extracts
An S30 extract is prepared by harvesting logarithmically growing Escherichia coli MRE 600 (M. Müller; University Freiburg), washing and employing them as described for the in vitro transcription-translation assay (Müller, M. and Blobel, G. Proc Natl Acad Sci USA (1984) 81, pp. 7421-7425).
1 μl of cAMP (11.25 mg/ml) are additionally added per 50 μl of reaction mix to the reaction mix for the in vitro transcription-translation assay. The assay mixture amounts to 105 μl, with 5 μl of the substance to be tested being introduced in 5% strength DMSO. 1 μg/100 pt of mixture of the plasmid pBESTLuc (Promega, Germany) are used as transcription template. After incubation at 30° C. for 60 min, 50 pt of luciferin solution (20 mM tricine, 2.67 mM MgSO4, 0.1 mM EDTA, 33.3 mM DTT pH 7.8, 270 μM CoA, 470 μM luciferin, 530 μM ATP) are added, and the resulting bioluminescence is measured in a luminometer for 1 minute. The IC50 is indicated by the concentration of an inhibitor which leads to 50% inhibition of the translation of firefly luciferase.

[2] = tested on: S. aureus 133 Translation; experiment: In vitro transcription-translation with S. aureus extracts; format: biochemical; details: S30 extract, plasmid p1a template, firefly luciferase, 30° C. 60 min
Source text: (§1) In Vitro Transcription-Translation with S. aureus Extracts
(§2) Construction of an S. aureus Luciferase Reporter Plasmid
(§3) A reporter plasmid which can be used in an in vitro transcription-translation assay for S. aureus is constructed by using the plasmid pBESTluc (Promega Corporation, USA). The E. coli tac promoter present in this plasmid in front of the firefly luciferase is replaced by the capA1 promoter with appropriate Shine-Dalgarno sequence from S. aureus. The primers CAPFor 5′-CGGCCAAGCTTACTCGGAT-[…] […]-3′ and CAPRev 5′-[…]-3′ are used for this. The primer CAPFor contains the capA1 promoter, the ribosome binding site and the 5′ region of the luciferase gene. After PCR using pBESTluc as template it is possible to isolate a PCR product which contains the firefly luciferase gene with the fused capA1 promoter. This is, after restriction with ClaI and HindIII, ligated into the vector pBESTluc which has likewise been digested with ClaI and HindIII. The resulting plasmid p1a is able to replicate in E. coli and be used as template in the S. aureus in vitro transcription-translation assay.
(§4) Preparation of S30 Extracts from S. aureus
(§5) Six liters of BHI medium are inoculated with a 250 ml overnight culture of an S. aureus strain and allowed to grow at 37° C. until the OD600 nm is 2-4. The cells are harvested by centrifugation and washed in 500 ml of cold buffer A (10 mM Tris acetate, pH 8.0, 14 mM Mg acetate, 1 mM DTT, 1 M KCl). After renewed centrifugation, the cells are washed in 250 ml of cold buffer A with 50 mM KCl, and the resulting pellets are frozen at −20° C. for 60 min. The pellets are thawed on ice in 30 to 60 min and taken up to a total volume of 99 ml in buffer B (10 mM Tris acetate, pH 8.0, 20 mM Mg acetate, 1 mM DTT, 50 mM KCl). 1.5 ml portions of lysostaphin (0.8 mg/ml) in buffer B are each introduced into 3 precooled centrifuge cups and each mixed with 33 ml of the cell suspension. The samples are incubated at 37° C., shaking occasionally, for 45 to 60 min, before 150 μl of a 0.5 M DTT solution are added. The lyzed cells are centrifuged at 30 000×g and 4° C. for 30 min. The cell pellet is taken up in buffer B and then centrifuged again under the same conditions, and the collected supernatants are combined. […]
(§6) Inhibition of protein biosynthesis of the compounds can be shown in an in vitro transcription-translation assay. […] The activity of the resulting luciferase can be detected by luminescence measurement. […]

B. catarrhalis M3 = experiment: Minimum inhibitory concentration (MIC), liquid dilution test; format: cell-based; details: Moraxella catarrhalis, minimal medium with 0.4% BH broth, 37° C., 18-24 h
Source text: (§7) Determination of the Minimum Inhibitory Concentration (MIC):
(§8) The inhibitor concentration can in these cases be determined by standard microbiological methods (see, for example, The National Committee for Clinical Laboratory Standards. Methods for dilution antimicrobial susceptibility tests for bacteria that grow aerobically; approved standard-fifth edition. NCCLS document M7-A5 [ISBN 1-56238-394-9]. NCCLS, 940 West Valley Road, Suite 1400, Wayne, Pa. 19087-1898 USA, 2000). The MIC of the compounds of the invention is determined in the liquid dilution test on the 96-well microtiter plate scale. The bacterial microbes are cultivated in a minimal medium (18.5 mM Na2HPO4, 5.7 mM KH2PO4, 9.3 mM NH4Cl, 2.8 mM MgSO4, 17.1 mM NaCl, 0.033 μg/ml thiamine hydrochloride, 1.2 μg/ml nicotinic acid, 0.003 μg/ml biotin, 1% glucose, 25 μg/ml of each proteinogenic amino acid with the exception of phenylalanine; [H.-P. Kroll; unpublished]) with addition of 0.4% BH broth (test medium). In the case of Enterococcus faecalis ICB 27159, heat-inactivated fetal calf serum (FCS; GibcoBRL, Germany) is added to the test medium in a final concentration of 10%. Overnight cultures of the test microbes are diluted to an OD578 of 0.001 (to 0.01 in the case of Enterococci) in fresh test medium, and incubated 1:1 with dilutions of the test substances (1:2 dilution steps) in test medium (150 μl final volume). The cultures are incubated at 37° C. for 18-24 hours; Enterococci in the presence of 5% CO2.
(§9) The lowest substance concentration in each case at which bacterial growth was no longer visible is defined as the MIC. […] The compounds show a graded antibacterial effect against most of the test microbes.

S. aureus 133 = experiment: as above; format: cell-based; details: minimal medium with 0.4% BH broth, 37° C., 18-24 h
Source text: as §7, §8, §9

[3] = tested on: S. aureus RN4220 Translation; experiment: In vitro transcription-translation with S. aureus extracts; format: biochemical; details: S30 extract, plasmid p1a template, firefly luciferase, 30° C. 60 min
Source text: as §1, §2, §3, §4, §5, §6

S. aureus 25701 = experiment: Minimum inhibitory concentration (MIC), liquid dilution test; format: cell-based; details: Staphylococcus aureus, minimal medium with 0.4% BH broth, 37° C., 18-24 h
Source text: as §7, §8, §9

S. aureus RN4220 = experiment: as above; format: cell-based; details: Staphylococcus aureus, minimal medium with 0.4% BH broth, 37° C., 18-24 h
Source text: as §7, §8, §9

[4] = tested on: Enterococcus faecalis ICB 27159; experiment: as above; format: cell-based; details: ICB27159, test medium with 10% heat-inactivated FCS, 5% CO2, 37° C., 18-24 h, read-out: MIC E. faecalis ICB 27159
Source text: as §7, §8, §9

| Molecule | pIC50 [1] | pIC50 [2] | MIC (B. catarrhalis M3) [µM] | MIC (S. aureus 133; Staphylococcus aureus, 133) [µM] | MIC (S. aureus 133) [µM] | pIC50 [3] | MIC (S. aureus 25701) [µM] | MIC (S. aureus RN4220) [µM] | MIC [4] [µM] |
| --- | --- | --- | --- | --- | --- | --- | --- | --- | --- |
| CCOC(=O)[C@@H]1Cc2cc(ccc2O)-c2ccc(O)c(c2)C[C@H](N)C(=O)N[C@@H](C[C@@H](O)CN)C(=O)N1 [Example 2, Ethyl(8S,11S,14S)-14-amino-11-[(2R)-3-amino-2-hydroxypropyl]-5,17-dihydroxy-10,13-dioxo-9,12-diazatricyclo[14.3.1.1^2,6]henicosa-1(20),2(21),3,5,16,18-hexaene-8-carboxylate dihydrochloride] | 6.70 | 5.37 to 5.62 | 6.25 | 0.78 | – | – | – | – | – |
| 2-Aminoethyl-(8S,11S,14S)-14-amino-11-[(2R)-3-amino-2-hydroxypropyl]-5,17-dihydroxy-9-methyl-10,13-dioxo-9,12-diazatricyclo[14.3.1.1^2,6]henicosa-1(20),2(21),3,5,16,18-hexaene-8-carboxylate trihydrochloride [Example 10] | – | 6.15 | – | – | 3.1 | – | – | – | – |
| COC(=O)[C@@H]1Cc2cc(ccc2O)-c2ccc(O)c(c2)C[C@H](N)C(=O)N[C@@H](C[C@@H](O)CN)C(=O)N1 [Example 1, Methyl(8S,11S,14S)-14-amino-11-[(2R)-3-amino-2-hydroxypropyl]-5,17-dihydroxy-10,13-dioxo-9,12-diazatricyclo[14.3.1.1^2,6]henicosa-1(20),2(21),3,5,16,18-hexaene-8-carboxylate dihydrochloride] | 6.30 | 5.52 to 6.30 | 1.56 | 3.13 | – | 5.77 | 12.5 | 0.4 | 1.56 |
